Experimental data reported in patent US20230234942A1, “COMPOUNDS FOR TREATING HUNTINGTON'S DISEASE” (PTC Therapeutics, Inc., priority 2020, published 2023).

Test system: Endogenous Huntingtin Protein
Test: Endogenous Huntingtin Protein Assay (ELISA-based MSD electrochemiluminescence)
Assay type: cell-based
In short: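 Endogenous huntingtin measured on MSD plates coated with MW1 (polyglutamine-expanded) or MAB2166 capture antibody; lysates bound overnight at 4 °C. Signal developed with #56565 rabbit monoclonal and goat anti-rabbit SULFO-TAG (0.25 µg/mL, 1 h RT each), electrochemiluminescence read on SI 6000.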

[1] = Table 2, MSD plates coated with MW1 (expanded polyglutamine) or MAB2166 capture antibody, "inactive" = result above the detection limit of the assay
[2] = Table 3, selected compounds from WO/2019/191229 A1, same MSD assay

SMILES | IC50 [1] [nM] | other results
CC(C)[C@@H]1CN(c2ncc(-c3ccc(-c4cn[nH]c4)cc3O)nn2)CCN1 [Cpd 40, 2-{3-[(3R)-3-(propan-2-yl)piperazin-1-yl]-1,2,4-triazin-6-yl}-5-(1H-pyrazol-4-yl)phenol] | 68.2 | 
Cc1cc(-c2ccc(-c3cnc(N4CCNC(C(C)C)C4)nn3)c(O)c2)ncn1 (racemic) [Cpd 149, 5-(6-methylpyrimidin-4-yl)-2-{3-[(3RS)-3-(propan-2-yl)piperazin-1-yl]-1,2,4-triazin-6-yl}phenol] | 90.7 | 
Cc1cn2nc(-c3ccc(-c4cnc(N5C[C@@H](C)N(C)[C@@H](C)C5)nn4)c(O)c3)cc(C)c2n1 [Cpd 111, 5-(2,8-dimethylimidazo[1,2-b]pyridazin-6-yl)-2-{3-[(3R,5S)-3,4,5-trimethylpiperazin-1-yl]-1,2,4-triazin-6-yl}phenol] | 27.5 | 
Cc1nc2ncc(-c3ccc(-c4cnc(N5C[C@@H](C)N[C@@H](C)C5)nn4)c(O)c3)cn2n1 [Cpd 112, 2-{3-[(3R,5S)-3,5-dimethylpiperazin-1-yl]-1,2,4-triazin-6-yl}-5-(2-methyl[1,2,4]triazolo[1,5-a]pyrimidin-6-yl)phenol] | 34 | 
CC1CN(c2ncc(-c3ccc(-c4cnn(C)c4)cc3O)nn2)CC(C)N1 (stereo not drawn) [WO/2019/191229 A1 Cpd 263, reference compound] |  | IC50 [2]: 352 nM
CC1CN(c2ncc(-c3ccc(-c4cn[nH]c4)cc3O)nn2)CC(C)N1 (stereo not drawn) [WO/2019/191229 A1 Cpd 262, reference compound] |  | IC50 [2]: 72.8 nM
CC(C)[C@H]1CN(c2ncc(-c3ccc(-c4cn5ncnc5cn4)cc3O)nn2)CCN1 [Cpd 128, 2-{3-[(3S)-3-(propan-2-yl)piperazin-1-yl]-1,2,4-triazin-6-yl}-5-([1,2,4]triazolo[1,5-a]pyrazin-6-yl)phenol] | 26.7 | 
Oc1cc(-c2ccncc2)ccc1-c1cnc(N2CCN[C@@H](C3CC3)C2)nn1 [Cpd 177, 2-{3-[(3S)-3-cyclopropylpiperazin-1-yl]-1,2,4-triazin-6-yl}-5-(pyridin-4-yl)phenol] | 29 | 
OC[C@@H]1CN(c2ncc(-c3ccc(-n4nccn4)cc3O)nn2)CCN1 [Cpd 45, 2-{3-[(3S)-3-(hydroxymethyl)piperazin-1-yl]-1,2,4-triazin-6-yl}-5-(2H-1,2,3-triazol-2-yl)phenol] | 142 | 
Oc1cc(-c2cn[nH]c2)ccc1-c1cnc(N2CCNCC2)nn1 [WO/2019/191229 A1 Cpd 328, reference compound] |  | IC50 [2]: 106 nM
[2H]C([2H])([2H])n1cc(-c2ccc(-c3cnc(N4C[C@@H](C)N[C@@H](C)C4)nn3)c(O)c2)cn1 [Cpd 49, 2-{3-[(3R,5S)-3,5-dimethylpiperazin-1-yl]-1,2,4-triazin-6-yl}-5-[1-(^2H3)methyl-1H-pyrazol-4-yl]phenol] | 256 | 
Cc1nc(-c2ccc(-c3cnc(N4CCN[C@@H](C5CC5)C4)nn3)c(O)c2)ns1 [Cpd 245, 2-{3-[(3S)-3-cyclopropylpiperazin-1-yl]-1,2,4-triazin-6-yl}-5-(5-methyl-1,2,4-thiadiazol-3-yl)phenol] | 11.5 | 
CCN1CCN(c2ncc(-c3ccc(-c4cc(F)c5nc(C)cn5c4)cc3O)nn2)C[C@H]1C [Cpd 89, 2-{3-[(3R)-4-ethyl-3-methylpiperazin-1-yl]-1,2,4-triazin-6-yl}-5-(8-fluoro-2-methylimidazo[1,2-a]pyridin-6-yl)phenol] | 6.7 | 
C[C@@H]1CN(c2ncc(-c3ccc(-c4ncns4)cc3O)nn2)C[C@H](C2CC2)N1 (single isomer, unassigned) [Cpd 269, 2-{3-[(3S,5R)-3-cyclopropyl-5-methylpiperazin-1-yl]-1,2,4-triazin-6-yl}-5-(1,2,4-thiadiazol-5-yl)phenol or 2-{3-[(3R,5S)-3-cyclopropyl-5-methylpiperazin-1-yl]-1,2,4-triazin-6-yl}-5-(1,2,4-thiadiazol-5-yl)phenol] | 53.9 | 
Oc1cc(-c2cn[nH]c2)ccc1-c1cnc(N2CCNC(C3CC3)C2)nn1 (stereo not drawn) [Cpd 5, 2-[3-(3-cyclopropylpiperazin-1-yl)-1,2,4-triazin-6-yl]-5-(1H-pyrazol-4-yl)phenol] | 6 | 
CC1CN(c2ncc(-c3ccc(-c4cc(F)c5nn(C)cc5c4)cc3O)nn2)CCN1 (stereo not drawn) [Cpd 67, 5-(7-fluoro-2-methyl-2H-indazol-5-yl)-2-[3-(3-methylpiperazin-1-yl)-1,2,4-triazin-6-yl]phenol] | 2.1 | 
C[C@H]1CN(c2ncc(-c3ccc(-c4cn[nH]c4)cc3O)nn2)C[C@@H](C2CC2)N1 [Cpd 224, 2-{3-[(3R,5S)-3-cyclopropyl-5-methylpiperazin-1-yl]-1,2,4-triazin-6-yl]-5-(1H-pyrazol-4-yl)phenol] | 232 | 
Oc1cc(-c2cn[nH]c2)ccc1-c1cnc(N2CCN(C3CC3)CC2)nn1 [Cpd 63, 2-[3-(4-cyclopropylpiperazin-1-yl)-1,2,4-triazin-6-yl]-5-(1H-pyrazol-4-yl)phenol] |  | IC50 (nM) [1]: inactive
C[C@@H]1CN(c2ncc(-c3ccc(-c4cnc5nn(C)nc5c4)cc3O)nn2)C[C@H](C)N1 [Cpd 197, 2-{3-[(3R,5S)-3,5-dimethylpiperazin-1-yl]-1,2,4-triazin-6-yl}-5-(2-methyl-2H-[1,2,3]triazolo[4,5-b]pyridin-6-yl)phenol] | 11.6 | 
Cc1nnn2cc(-c3ccc(-c4cnc(N5CCN[C@@H](C6CC6)C5)nn4)c(O)c3)ccc12 [Cpd 193, 2-{3-[(3S)-3-cyclopropylpiperazin-1-yl]-1,2,4-triazin-6-yl}-5-(3-methyl[1,2,3]triazolo[1,5-a]pyridin-6-yl)phenol] | 4.8 | 

Now from value to compound, other results behind:

IC50 [1] [nM] | SMILES | other results
26.2 | COc1cc(-c2cc(O)c(-c3cnc(N4CCN[C@@H](C(C)C)C4)nn3)c(F)c2)ncn1 [Cpd 28, 3-fluoro-5-(6-methoxypyrimidin-4-yl)-2-{3-[(3S)-3-(propan-2-yl)piperazin-1-yl]-1,2,4-triazin-6-yl}phenol] | 
13.4 | C[C@@H]1CN(c2ncc(-c3ccc(-c4cn[nH]c4)cc3O)nn2)C[C@H](C2CC2)N1 [Cpd 225, 2-{3-[(3S,5R)-3-cyclopropyl-5-methylpiperazin-1-yl]-1,2,4-triazin-6-yl}-5-(1H-pyrazol-4-yl)phenol] | 
8.7 | CC[C@H]1CN(c2ncc(-c3ccc(-c4cc(OC)ncn4)cc3O)nn2)C[C@@H](C)N1 [Cpd 234, 2-{3-[(3S,5R)-3-ethyl-5-methylpiperazin-1-yl]-1,2,4-triazin-6-yl}-5-(6-methoxypyrimidin-4-yl)phenol] | 
6.7 | Oc1cc(-c2cn[nH]c2)ccc1-c1cnc(N2CCNC(C3(O)CC3)C2)nn1 (stereo not drawn) [Cpd 6, 2-{3-[3-(1-hydroxycyclopropyl)piperazin-1-yl]-1,2,4-triazin-6-yl}-5-(1H-pyrazol-4-yl)phenol] | 
6 | Cc1cn2cc(-c3ccc(-c4cnc(N5C[C@@H](C)N[C@@H](C)C5)nn4)c(O)c3)ncc2n1 [Cpd 86, 2-{3-[(3R,5S)-3,5-dimethylpiperazin-1-yl]-1,2,4-triazin-6-yl}-5-(2-methylimidazo[1,2-a]pyrazin-6-yl)phenol] | 
147 | Cc1cnc(-c2ccc(-c3cnc(N4CCN[C@@H](C5CC5)C4)nn3)c(O)c2)o1 [Cpd 232, 2-{3-[(3S)-3-cyclopropylpiperazin-1-yl]-1,2,4-triazin-6-yl}-5-(5-methyl-1,3-oxazol-2-yl)phenol] | 
292 | CC(C)[C@H]1CN(c2ncc(-c3ccc(-c4cnsn4)cc3O)nn2)CCN1 [Cpd 265, 2-{3-[(3S)-3-(propan-2-yl)piperazin-1-yl]-1,2,4-triazin-6-yl}-5-(1,2,5-thiadiazol-3-yl)phenol] | 
3.7 | Oc1cc(-c2cnn3c2CCC3)ccc1-c1cnc(N2CCN[C@@H](C3CC3)C2)nn1 [Cpd 276, 2-{3-[(3S)-3-cyclopropylpiperazin-1-yl]-1,2,4-triazin-6-yl}-5-(5,6-dihydro-4H-pyrrolo[1,2-b]pyrazol-3-yl)phenol] | 
975 | Oc1cc(-c2cc(N3CCC3)ncn2)ccc1-c1cnc(N2CCNC(C3CC3)C2)nn1 (racemic) [Cpd 210, 5-[6-(azetidin-1-yl)pyrimidin-4-yl]-2-{3-[(3RS)-3-cyclopropylpiperazin-1-yl]-1,2,4-triazin-6-yl}phenol] | 
4.2 | Oc1cc(-c2c[nH]nc2Cl)ccc1-c1cnc(N2CCN[C@@H](C3CC3)C2)nn1 [Cpd 163, 5-(3-chloro-1H-pyrazol-4-yl)-2-{3-[(3S)-3-cyclopropylpiperazin-1-yl]-1,2,4-triazin-6-yl}phenol] | 
12.5 | [2H]C([2H])([2H])n1cc(-c2cc(O)c(-c3cnc(N4CCN[C@@H](C(C)(C)C)C4)nn3)cc2F)cn1 [Cpd 156, 2-{3-[(3S)-3-tert-butylpiperazin-1-yl]-1,2,4-triazin-6-yl}-4-fluoro-5-[1-(^2H3)methyl-1H-pyrazol-4-yl]phenol] | 
755 | CN1CCn2ncc(-c3ccc(-c4cnc(N5CCN[C@@H](C6CC6)C5)nn4)c(O)c3)c21 [Cpd 275, 2-{3-[(3S)-3-cyclopropylpiperazin-1-yl]-1,2,4-triazin-6-yl}-5-(1-methyl-2,3-dihydro-IH-imidazo[1,2-b]pyrazol-7-yl)phenol] | 
21.5 | Oc1cc(-c2ncns2)ccc1-c1cnc(N2CCN[C@@H](C3CC3)C2)nn1 [Cpd 170, 2-{3-[(3S)-3-cyclopropylpiperazin-1-yl]-1,2,4-triazin-6-yl}-5-(1,2,4-thiadiazol-5-yl)phenol] | 
34.3 | CCCC1CN(c2ncc(-c3ccc(-c4cn[nH]c4)cc3O)nn2)CCN1 (stereo not drawn) [Cpd 31, 2-[3-(3-propylpiperazin-1-yl)-1,2,4-triazin-6-yl]-5-(1H-pyrazol-4-yl)phenol] | 
22.1 | Cc1nc2c(C3CC3)nc(-c3ccc(-c4cnc(N5C[C@@H](C)N[C@@H](C)C5)nn4)c(O)c3)cn2n1 [Cpd 109, 5-(8-cyclopropyl-2-methyl[1,2,4]triazolo[1,5-a]pyrazin-6-yl)-2-{3-[(3R,5S)-3,5-dimethylpiperazin-1-yl]-1,2,4-triazin-6-yl}phenol] | 
1010 | CC(C)N1CCN(c2ncc(-c3ccc(-c4cn[nH]c4)cc3O)nn2)CC1 [Cpd 60, 2-{3-[4-(propan-2-yl)piperazin-1-yl]-1,2,4-triazin-6-yl}-5-(1H-pyrazol-4-yl)phenol] | 
